Results: patent publication US20040115792A1, “Yeast strain for testing the geno- and cytotoxicity of complex environmental contaminations” (priority 2000, published 2004)

How the values were obtained:
[1] = tested on: cytochrome-P450-dependent aromatase; conditions: marine gastropods; Bettin et al. 1995; cited from earlier work
[2] = tested on: Saccharomyces cerevisiae wild strain; assay: Growth and fluorescence test in the presence of inhibitors, wild strain; assay type: cell-based; conditions: 0.05 and 0.5 ng/ml mitomycin C, 0.01 and 0.1 ng/ml TPhT, 30° C., 8 hours
[3] = tested on: pma1-DsRed1 reporter in yeast strain HLY5RG-12B2; assay: Cytotoxic signaling: DsRed1 under pma1 promoter, red fluorescence; conditions: depending on concentration: mitomycin C 0.05 and 0.5 ng/ml, TPhT 0.01 and 0.1 ng/ml, 8 hours, 30° C.
Method: (§1) Cultures of Saccharomyces cerevisiae wild strain, of the pdr5yor1snq2 triple-mutant yeast strain and of the genotoxically and cytotoxically signaling strain HLY5RG-12B2 expressing Dsred and egfp were grown in complete medium YPD (2% yeast extract, 1% peptone) with 2% D-glucose, pH 5.0, at 30° C. over night with shaking.
For the cytotoxic substance testing, a spectral excitation at 558 nm was performed, and the intensity of the emission maxima at 583 nm (specific of DsRedp) was measured for all cell suspensions. In addition, a determination of the simple growth of the cells by measuring the optical density at 600 nm was performed.

[4] = tested on: rad54::egfp reporter in yeast strain HLY5RG-12B2; assay: Genotoxic signaling: egfp under rad54 promoter, green fluorescence; conditions: depending on concentration: mitomycin C 0.05 and 0.5 ng/ml, TPhT 0.01 and 0.1 ng/ml, 8 hours, 30° C.
Method: as §1
Subsequently, a spectral excitation at 489 nm was performed for the genotoxic substance testing, and the intensity of the emission maxima at 508 nm (specific of egfp) was measured for all cell suspensions.

[5] = tested on: pdr5yor1snq2 triple-mutant yeast strain; assay: Growth and fluorescence test in the presence of inhibitors, pdr5yor1snq2 triple-mutant strain; assay type: cell-based, Saccharomyces cerevisiae; conditions: 0.05 and 0.5 ng/ml mitomycin C, 0.01 and 0.1 ng/ml TPhT, 30° C., 8 hours

Substance: tributyltin [TBT]
- effect on aromatization of androgens into estrogens [1]: inhibits the aromatization of androgens into estrogens

Substance: triphenyltin [TPhT]
- growth rate (doubling time) [2]: 90 min
- specific red (583 nm) or green (508 nm) fluorescence [2]: without showing a specific red (cytotoxic potential) or green (genotoxic potential) fluorescence
- red fluorescence, emission maximum 583 nm (cytotoxic potential) [3]: increasing specific red fluorescence
- green fluorescence, emission maximum 508 nm (genotoxic potential) [4]: no increasing green fluorescence
- growth rate (doubling time) [5]: 180 min
- specific red (583 nm) or green (508 nm) fluorescence [5]: without showing a specific red (cytotoxic potential) or green (genotoxic potential) fluorescence
